The subject of this assay is VEGF-induced HUVEC growth. As to the kind of experiment: VEGF-induced HUVEC growth reaction evaluation system (cell growth inhibitory action test). As to conditions: Homo sapiens, 72 h, 20 μg/ml test compound solution added 5 μl per well (100 μl), VEGF solution 400 ng/ml 5 μl per well, three days, absorbance at 450 nm, read-out: Cell growth inhibition rate (%). Type of assay: cell-based. The protocol:
Cell growth inhibitory action tests were carried out using a VEGF-induced HUVEC growth reaction evaluation system (HUVEC stands for human umbilical vein endothelial cells), which is one of widely-used methods of evaluating in vitro angiogenesis inhibitory effects of drugs.
As one of widely-used methods of evaluating angiogenesis inhibitory effects of drugs, a cell growth inhibitory action test using a VEGF-induced HUVEC growth reaction evaluation system was reported in Cancer Res., 59, 99-106(1999). According to the method described in the above-mentioned literature, cell growth inhibitory action tests of the present compounds were carried out, their cell growth inhibition rates were calculated, and angiogenesis inhibitory effects of the present compounds were evaluated using the obtained rates as indexes.
Each test compound was dissolved in dimethyl sulfoxide (hereinafter abbreviated as “DMSO”), and the obtained solution was diluted with commercially available phosphoric acid buffer solution (hereinafter abbreviated as “PBS”) to prepare a 20 μg/ml test compound solution.
HUVEC was suspended in a 0.5% fetal bovine serum (hereinafter abbreviated as “FBS”)-containing F12K medium to prepare a 2×10^4 cells/ml HUVEC suspension.
VEGF was dissolved in 0.1% bovine serum albumin-containing PBS, and the obtained solution was diluted with the 0.5% FBS-containing F12K medium to prepare a 400 ng/ml VEGF solution.
• 1) The HUVEC suspension was inoculated in each amount of 100 μl into each well of a 96-well plate coated with I type collagen (2×10^3 cells per well). • 2) One day after inoculation, the test compound solution was added in an amount of 5 μl per well. • 3) One hour after adding the test compound solution, the VEGF solution was added in an amount of 5 μl per well. • 4) Three days after adding the VEGF solution, cell counting kit-8(Dojin Chemical Co., Ltd.) was added in an amount of 10 μl per well. • 5) After three hours, the above-mentioned plate was attached to an absorptiometer (multi label counter ARVO), and absorbance at 450 nm of each well suspension (hereinafter referred to as “test compound suspension”) was measured. • 6) A test was carried out in the same manner as in 1) to 5) except that 1.0% DMSO was used instead of the test compound solution.
Incubation was carried out under conditions of 37° C., 5% carbon dioxide and 95% air in an incubator throughout the above-mentioned test steps.
Cell growth inhibition rates, which are indexes of angiogenesis inhibitory effects, were calculated by the following calculation equation.
On to `Cc1cc(C)cc(NC(=O)c2sccc2SCc2ccnc(Cl)c2)c1` [1-251, 3-(2-Chloropyridin-4-ylmethylthio)-N-(3,5-dimethylphenyl)thiophene-2-carboxamide], for which the inhibition at 20 µg/mL (stock) amounted to 77%.
Then `CC(C)c1cccc(NC(=O)c2cccnc2SCc2cc[n+]([O-])cc2)c1` [4-6, N-(3-Isopropylphenyl)-2-(1-oxopyridin-4-ylmethylthio)pyridine-3-carboxamide], with 100%; and `Cc1cccc(NC(=O)c2cscc2SCc2ccncc2)c1` [1-292, N-(3-Methylphenyl) 4 (4-pyridylmethylthio)thiophene-3 carboxamide], with 100%.
For `Cc1cc(NC(=O)c2cccnc2SCc2ccncc2)ccc1OC(F)(F)F` [1-175, N-(3-Methyl-4-trifluoromethoxyphenyl)-2-(4-pyridylmethylthio)pyridine-3-carboxamide] the value was 100%; for `Cc1cc(NC(=O)c2ccccc2SCc2ccncc2)ccc1Br` [1-111, N-(4-Bromo-3-methylphenyl)-2-(4-pyridylmethylthio)benzamide], 100%; for `Cc1cc(C)cc(NC(=O)c2cccnc2SCc2ccnc(C#N)c2)c1` [1-236, 2-(2-Cyanopyridin-4-ylmethylthio)-N-(3,5-dimethylphenyl)pyridine-3-carboxamide], 100%.
Then `O=C(Nc1cccc(C(F)(F)F)c1)c1sccc1SCc1ccncc1` [1-276, 3-(4-Pyridylmethylthio)-N-(3-trifluoromethylphenyl)thiophene-2-carboxamide], with 100%.
For `O=C(Nc1ccc(C(F)(F)F)cc1)c1sccc1SCc1ccncc1` [1-255, 3-(4-Pyridylmethylthio)-N-(4-trifluoromethylphenyl)thiophene-2-carboxamide], the inhibition at 20 µg/mL (stock) was 85%.
With `Cc1cc(C)cc(NC(=O)c2ccsc2SCc2ccncc2)c1` [1-291, N-(3,5-Dimethylphenyl)-2-(4-pyridylmethylthio)thiophene-3-carboxamide], the inhibition at 20 µg/mL (stock) was determined as 100%.
Then `CN(C)c1ccc(NC(=O)c2ccccc2SCc2ccncc2)cc1` [1-91, N-(4-Dimethylaminophenyl)-2-(4-pyridylmethylthio)benzamide], with 100%.
For `Cc1cccc(NC(=O)c2cccnc2SCc2cc[n+]([O-])cc2)c1` [4-3, N-(3-Methylphenyl)-2-(1-oxopyridin-4-ylmethylthio)pyridine-3-carboxamide] the value was 100%; for `Cc1cc(C)cc(NC(=O)c2cccnc2SCc2ccnc(F)c2)c1` [1-213, N-(3,5-Dimethylphenyl)-2-(2-fluoropyridin-4-ylmethylthio)pyridine-3-carboxamide], 100%.
For `CC(C)c1cccc(NC(=O)c2cccnc2SCc2ccncc2)c1` [1-35, N-(3-Isopropylphenyl)-2-(4-pyridylmethylthio)pyridine-3-carboxamide] the value was 100%; for `COCCNC(=O)c1cc(CSc2ncccc2C(=O)Nc2cc(C)cc(C)c2)ccn1` [7-4, N-(3,5-Dimethylphenyl)-2-[2-(2-methoxyethylaminocarbonyl)pyridin-4-ylmethylthio]pyridine-3-carboxamide], 100%.
In the case of `CC(C)Oc1ccc(NC(=O)c2sccc2SCc2ccncc2)cc1` [1-246, N-(4-Isopropoxyphenyl)-3-(4-pyridylmethylthio)thiophene-2-carboxamide], the inhibition at 20 µg/mL (stock) stood at 76%.
For `Cc1ccc(NC(=O)c2sccc2SCc2ccncc2)cc1F` [1-248, N-(3-Fluoro-4-methylphenyl)-3-(4-pyridylmethylthio)thiophene-2-carboxamide] the value was 75%; for `Cc1cc(C)cc(NC(=O)c2cccnc2SCc2ccnc(Cl)c2)c1` [1-226, 2-(2-Chloropyridin-4-ylmethylthio)-N-(3,5-dimethylphenyl)pyridine-3-carboxamide], 100%.
Consider `O=C(Nc1ccc2c(c1)CCC2)c1cccnc1SCc1ccnc(F)c1` [1-215, 2-(2-Fluoropyridin-4-ylmethylthio)-N-(5-indanyl)pyridine-3-carboxamide], for which the inhibition at 20 µg/mL (stock) is 100%.
For `CN(C)c1ccc(NC(=O)c2cccnc2SCc2ccncc2)cc1` [1-64, N-(4-Dimethylaminophenyl)-2-(4-pyridylmethylthio)pyridine-3-carboxamide] the value was 100%; for `O=C(Nc1cnc2ccccc2c1)c1ccccc1SCc1ccncc1` [1-95, 2-(4-Pyridylmethylthio)-N-(3-quinolyl)benzamide], 100%; for `CSc1cc(CSc2ncccc2C(=O)Nc2cc(C)cc(C)c2)ccn1` [1-231, N-(3,5-Dimethylphenyl)-2-(2-methylthiopyridin-4-ylmethylthio)pyridine-3-carboxamide], 100%.
For `Cc1cc(C)cc(NC(=O)c2cccnc2SCc2ccnc(C(N)=O)c2)c1` [8-1, 2-(2-Carbamoylpyridin-4-ylmethylthio)-N-(3,5-dimethylphenyl)pyridine-3-carboxamide], the inhibition at 20 µg/mL (stock) came out at 100%.
For `CC(Sc1ncccc1C(=O)Nc1cccc(Cl)c1)c1ccncc1` (stereo not drawn) [5-2, N-(3-Chlorophenyl)-2-[1-(4-pyridyl)ethylthio]pyridine-3-carboxamide] the value was 96%; for `CCCNC(=O)c1cc(CSc2ncccc2C(=O)Nc2cc(C)cc(C)c2)ccn1` [7-1, N-(3,5-Dimethylphenyl)-2(2-n-propylaminocarbonylpyridin-4-yl-methylthio)pyridine 3 carboxamide], 100%.
Then `O=C(Nc1ccc(Cl)cc1)c1cccnc1SCc1cc[n+]([O-])cc1` [4-1, N-(4-Chlorophenyl)-2-(1-oxopyridin-4-ylmethylthio)pyridine-3-carb oxamide], with 93%.
Then `O=C(Nc1ccc2c(c1)CCC2)c1ccsc1SCc1ccncc1` [1-287, N-(5-Indanyl)-2-(4-pyridylmethylthio)thiophene-3-carboxamide], with 95%.
In the case of `CCCc1ccc(NC(=O)c2cccnc2SCc2ccncc2)cc1` [1-49, N-(4-n-Propylphenyl)-2-(4-pyridylmethylthio)pyridine-3-carboxamide], the inhibition at 20 µg/mL (stock) was found to be 100%.
Then `Cc1cc(NC(=O)c2ccsc2SCc2ccncc2)ccc1Br` [1-289, N-(4-Bromo-3-methylphenyl)-2-(4-pyridylmethylthio)thiophene-3-carboxamide], with 100%; and `CC(C)(C)c1ccc(NC(=O)c2sccc2SCc2ccncc2)cc1` [1-256, N-(4-tert-Butylphenyl)-3-(4-pyridylmethylthio)thiophene-2-carboxamide], with 100%.
For `Cc1cc(NC(=O)c2cccnc2SCc2cc[n+]([O-])cc2)ccc1F` [4-7, N-(4-Fluoro-3-methylphenyl)-2-(1-oxopyridin-4-ylmethylthio)pyridine-3-carboxamide] the value was 100%; for `O=C(Nc1ccc(F)c(Cl)c1)c1cccnc1SCc1ccncc1` [1-75, N-(3-Chloro-4-fluorophenyl)-2-(4-pyridylmethylthio)pyridine-3-carboxamide], 100%.
Then `Cc1cccc(NC(=O)c2ccsc2SCc2ccncc2)c1` [1-285, N-(3-Methylphenyl)-2-(4-pyridylmethylthio)thiophene-3-carboxamide], with 100%; and `O=C(Nc1ccc(OC(F)(F)F)cc1)c1cccnc1SCc1ccnc(Cl)c1` [1-227, 2-(2-Chloropyridin-4-ylmethylthio)-N-(4-trifluoromethoxyphenyl)pyridine-3-carboxamide], with 60%; and `O=C(Nc1ccc(F)c(C(F)(F)F)c1)c1cccnc1SCc1ccncc1` [1-77, N-(4-Fluoro-3-trifluoromethylphenyl)-2-(4-pyridylmethylthio)pyridine-3-carboxamide], with 100%.
As to `Cc1cc(NC(=O)c2cccnc2SCc2ccncc2)ccc1Cl` [1-79, N-(4-Chloro-3-methylphenyl)-2-(4-pyridylmethylthio)pyridine-3-carboxamide], the inhibition at 20 µg/mL (stock) was determined as 100%.
For `Cc1cc(C)cc(NC(=O)c2cccnc2SCc2ccnc(C(=O)O)c2)c1` [6-1, 2-(2-Carboxypyridin-4-ylmethylthio)-N-(3,5-dimethylphenyl)pyridine-3-carboxamide] the value was 72%.

Source of the values: patent US8518973B2, “Compounds having 4-pyridylalkylthio group as a substituent” (Santen Pharmaceutical Co., Ltd., priority 2003, dated 2013).
